Results on one molecule are retold here after patent US11679110B2, “Methods of treating disorders using CSF1R inhibitors” (Deciphera Pharmaceuticals, LLC, priority 2018, dated 2023).

Entries after “also recorded” stand apart in the source; their conditions may differ. Like-named read-outs stand apart in the source and are kept apart here.

One data set concerns M-NFS-60 cells. In words: cells. It counts as cell-based. The following applies: Mus musculus.
A further data set has as its system TGCT or DTGCT. The note with it: cited from earlier work.
The conditions of data set [1]: human, in vivo, 800 mg.
For data set [2] the following is noted: rat, 4-week, cited from earlier work.
The conditions of data set [3]: rat, six-month, cited from earlier work.
For data set [4] the following is noted: human; recommended dose 800 mg daily; cited from earlier work.
The next data set is described as follows: clinical. The following applies: human, in vivo, 800 mg.

One may read the AUC(0-t) as exposure summed from dosing to a finite time, without extrapolation to infinity. Low readings indicate low exposure, high ones high exposure. As for `FC(F)(F)c1ccc(CNc2ccc(Cc3c[nH]c4ncc(Cl)cc34)cn2)cn1` [pexidartinib], in the data set on M-NFS-60 cells (read-out: average IC50, inhibition of M-NFS-60 cell proliferation, 10 ng/mL CSF1), the IC50 came to 15.7 nM. Also, in the data set on M-NFS-60 cells (read-out: average IC50, inhibition of M-NFS-60 cell proliferation, 1,000 ng/mL CSF1), the IC50 came to 59.6 nM. In addition, the ORR in the data set on TGCT or DTGCT (ENLIVEN phase 3 randomized trial, maintenance dose 400 mg twice daily) is listed as 39%. For the same molecule, the “overall response rate (ORR)” value in the data set with TGCT or DTGCT (TGCT or DTGCT patients, 1000 mg daily, phase 2 clinical study) was 52%. For the same molecule, the maximum tolerated dose in the data set with TGCT or DTGCT (TGCT patients, clinical use) is recorded as 400 mg twice daily. Besides, in the data set with TGCT or DTGCT (patients), the “liver injury / hepatotoxicity” value is “mixed or cholestatic hepatotoxicity; also recorded: black box warning of hepatotoxicity”; the “maximum tolerated dose and chosen phase 2 dose” value is 1000 mg per day. Further, the “AUC0-24 clinical exposure (estimated from label AUC0-12)” value in data set [1] was 154.93 µg·h/mL. Also, the NOAEL result in data set [2] (20, 60, 200 mg/kg/day oral gavage) is given as “could not be established”. Further, in data set [2] (all dose groups), the liver enzymes result is listed as “increased liver enzymes” and the liver histology finding entry is reported as “dose-related hepatocellular centrilobular hypertrophy”. Moreover, in data set [3] (60 mg/kg daily), the “deaths of main study animals due to treatment-related immunocompromise” value is recorded as 3. In data set [3] (60 mg/kg, female), the “liver findings in female rats” value was “biliary cysts and increased gamma-glutamyl transferase (GGT) levels”. Further, the liver findings entry in data set [3] (≥20 mg/kg) was “hemosiderin deposition and necrotizing inflammation”. For the same molecule, the “AUC0-12 clinical exposure cited in the label” value in data set [4] was 77.465 µg·h/mL. The exposure AUC(0-t) in “clinical” was found to be 155 µg·h/mL.
